Tests used:
human RXRα [1] = biological target: T1, human RXRα (Homo sapiens, UniProt P19793); details: 10^−7 M, 24 h, Caco-2 cells, versus ethanol control (Figure 4)
T1 sequence (P19793 1-462): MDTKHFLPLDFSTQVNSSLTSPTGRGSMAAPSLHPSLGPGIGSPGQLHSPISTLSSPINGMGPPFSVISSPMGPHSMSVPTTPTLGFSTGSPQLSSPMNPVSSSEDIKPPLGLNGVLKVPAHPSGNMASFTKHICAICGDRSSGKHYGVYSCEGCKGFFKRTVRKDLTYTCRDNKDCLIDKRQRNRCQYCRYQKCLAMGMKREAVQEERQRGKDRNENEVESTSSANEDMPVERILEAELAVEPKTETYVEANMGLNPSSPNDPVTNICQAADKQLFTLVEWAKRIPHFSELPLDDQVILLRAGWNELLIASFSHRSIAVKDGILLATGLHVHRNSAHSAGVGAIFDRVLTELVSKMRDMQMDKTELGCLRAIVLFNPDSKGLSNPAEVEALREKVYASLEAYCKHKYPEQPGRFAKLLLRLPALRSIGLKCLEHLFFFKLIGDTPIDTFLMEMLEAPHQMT

human RXRα [2] = biological target: T1, human RXRα; details: based on Ki values of Table 1
RXR [3] = biological target: T2, RXR (Homo sapiens, UniProt P19793); details: for RXR binding and homodimerization relative to 1 (luciferase output): 10^−7 M, 24 h, Caco-2 cells, compound 1 set to 1.0 (Figure 3)
T2 sequence (P19793 227-462 limits assumed): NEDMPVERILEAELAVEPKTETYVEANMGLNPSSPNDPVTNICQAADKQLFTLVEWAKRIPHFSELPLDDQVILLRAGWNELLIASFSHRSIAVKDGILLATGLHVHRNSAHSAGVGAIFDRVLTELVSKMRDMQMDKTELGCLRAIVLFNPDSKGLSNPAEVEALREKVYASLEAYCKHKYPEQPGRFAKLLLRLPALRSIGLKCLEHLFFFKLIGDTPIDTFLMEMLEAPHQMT

human RARα = biological target: T3, human RARα (Homo sapiens, UniProt P10276); details: RARE-luciferase reporter, Caco-2 cells
T3 sequence (P10276 1-462): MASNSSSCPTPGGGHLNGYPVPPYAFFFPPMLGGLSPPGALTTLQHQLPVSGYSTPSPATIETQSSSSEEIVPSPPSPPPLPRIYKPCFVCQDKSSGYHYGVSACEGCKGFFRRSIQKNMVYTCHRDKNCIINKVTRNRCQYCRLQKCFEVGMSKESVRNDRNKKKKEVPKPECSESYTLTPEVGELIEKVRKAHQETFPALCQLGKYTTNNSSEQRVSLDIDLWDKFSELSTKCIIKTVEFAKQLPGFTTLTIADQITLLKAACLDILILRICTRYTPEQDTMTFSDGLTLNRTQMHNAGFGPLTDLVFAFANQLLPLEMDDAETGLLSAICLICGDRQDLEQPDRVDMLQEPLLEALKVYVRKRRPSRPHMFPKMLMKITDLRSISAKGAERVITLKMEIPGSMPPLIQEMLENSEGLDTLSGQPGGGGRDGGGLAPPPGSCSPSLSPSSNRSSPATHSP
T3 sequence (P19793 1-462 partner): T1 sequence (P19793 1-462)

RXR [4] = biological target: T2, RXR; assay: cell-based
human RXRα [5] = biological target: T1, human RXRα; assay: biochemical
[6] = tested on: Human T-cell lymphoma (CTCL) cells (Hut78); details: 24 h, versus ethanol vehicle control (Figure 5)

| Molecule | RXR-mediated transcriptional activity (RXRE-luciferase) (human RXRα [1]) | apparent RXR binding affinity greater than 1 (human RXRα [2]) | increase in efficacy based on EC50 values (RXR [3]; versus 1, Table 1) | RAR agonist activity compared with 1 (human RARα) | EC50 (RXR [4]) | Ki (human RXRα [5]) | RXR binding and homodimerization relative to 1 (luciferase output) (RXR [3]) | apoptotic activity (caspases 3 and 7) [6] |
| --- | --- | --- | --- | --- | --- | --- | --- | --- |
| 5-(1-(1,2,3,4-Tetrahydro-1,1,4,4,6-pentamethylnaphthalen-7-yl)vinyl)benzene-1,3-dioic Acid [Compound 14] | did not display significant RXR binding and activation |  |  |  |  |  |  |  |
| C=C(c1ccc(C(=O)O)c(F)c1)c1cc2c(cc1C)C(C)(C)CCC2(C)C [Compound 20, 2-fluoro-4-(1-(1,2,3,4-tetrahydro-1,1,4,4,6-pentamethylnaphthalen-7-yl)vinyl)benzoic acid] | transcriptional activity significantly above the ethanol control levels | 75% | 20% | approximately equal to 1 | 43 nM | 12 nM |  |  |
| Cc1cc2c(cc1C(=O)c1ccc(C(=O)O)cc1F)C(C)(C)CCC2(C)C [Compound 19, 3-Fluoro-4-(1-(3,5,5,8,8-pentamethyl-5,6,7,8-tetrahydronaphthalen-2-yl)carbonyl)benzoic acid] |  |  |  |  |  |  | does not bind to RXR | almost no apoptotic activity |
| Cc1cc2c(cc1C(=O)c1ccc(C(=O)O)c(F)c1)C(C)(C)CCC2(C)C [Compound 21, 2-fluoro-4-(1-(3,5,5,8,8-pentamethyl-5,6,7,8-tetrahydronaphthalen-2-yl)carbonyl)benzoic acid] |  |  |  |  |  |  | a small degree of RXR binding and homodimerization relative to 1 |  |
| C=C(c1ccc(C(=O)O)c([N+](=O)[O-])c1)c1cc2c(cc1C)C(C)(C)CCC2(C)C [Compound 16, 4-(1-(1,2,3,4-Tetrahydro-1,1,4,4,6-pentamethylnaphthalen-7-yl)vinyl)-2-nitrobenzoic Acid] | transcriptional activity significantly above the ethanol control levels |  |  | slightly greater RAR agonist activity | 200 nM | 81 nM |  |  |
| C=C(c1cc2c(cc1C)C(C)(C)CCC2(C)C)c1ccc(C(=O)O)cc1F [Compound 18, 3-Fluoro-4-(1-(1,2,3,4-tetrahydro-1,1,4,4,6-pentamethylnaphthalen-7-yl)vinyl)benzoic acid] | transcriptional activity significantly above the ethanol control levels |  |  | significantly lower RAR binding | 420 nM | 161 nM | about half as well as 1 |  |

— article PMC2765782 (Journal of medicinal chemistry, 2009)
